Reference: US10800790B2, “Sesquiterpenoid STAT3 inhibitors” (University of Hawaii, priority 2013, dated 2020)

What was measured:
[1] = test system: U251 MG cells; experiment: iTRAQ proteomics with immunoblot validation, U251 MG cells; type: cell-based, human
Procedure: To investigate the possibility that the hirsutinolides could induce global molecular changes in the sensitive malignant cells, lysates were prepared from U251 MG cells untreated or treated with 6 or 22 for 1 h and analyzed by isobaric peptide labeling and nanoLC-MS/MS analysis (iTRAQ) proteomics method (Ross, P. L., et al., Multiplexed protein quantitation in Saccharomyces cerevisiae using amine-reactive isobaric tagging reagents, Mol Cell Proteomics., 2004. 3: p. 1154-69), as described in the Examples section. A search was pursed of the 341,908 mass spectrometry spectra using ProteinPilot (version 4.5; Applied Biosystems) against the National Center for Biotechnology Information non-redundant reference sequence (NCBInr) human database and based on the criteria of choosing only proteins with at least 95% confidence and with a “Local False Discovery Rate” no higher than 5%, as calculated from the slope of the accumulated Decoy database hits by the PSPEP estimation. […]
Cellular samples were prepared according to the Pennsylvania STATe University College of Medicine Mass Spectrometry and Proteomics Core (MSPC) facility (Hershey, Pa.) standard protocol, adapted from the manufacturer's instructions (Applied Biosystems Sciex, Foster City, Calif.), combined with filter-aided sample preparation, as previously reported. […] For iTRAQ analysis (Ross, P. L., et al., Multiplexed protein quantitation in Saccharomyces cerevisiae using amine-reactive isobaric tagging reagents, Mol Cell Proteomics., 2004, 3: p. 1154-69), one hundred micrograms of whole-cell lysates from U251 MG cells untreated (DMSO control) or treated with 5 micromolar of compounds 22 or 6 for 1 h were independently digested, and their corresponding cellular proteins were differently labeled with 114, 115 or 117 tags, respectively, using iTRAQ reagents. […] Protein identification and quantification for iTRAQ samples were carried out using ProteinPilot™ software (version 4.5; Applied Biosystems, MDS-Sciex, Framingham, Mass.). […]

[2] = test system: PTP1B; experiment: Immunoblotting of PTP1B levels in U251MG cells; type: cell-based, human; settings: 5 micromolar
Procedure: To further investigate into the mechanism of inhibition of STAT3 induction, effects on protein tyrosine […] (PTPs) were determined. […] Instead, the potent inhibitory effects of agents (5 micromolar) countered the robust pY705STAT3 induction by orthovanadate alone.
FIGS. 13A-13C show analyses of STAT1, STAT3, STAT5, Akt, Erk1/2, JAK2, SOCS, and PTP1B activation or STAT3-EGFR association and the effects of active hirsutinolides and sodium orthovanadate. (A-C) SDS-PAGE and Western blotting analysis of whole-cell lysates of equal total protein prepared from (A) EGF-stimulated NIH3T3/hEGFR cells pre-treated with the 5 micromolar of the designated agents for 24 h and probing for pY705STAT3, STAT3, pY701 STAT1, STAT1, pY694STAT5, STAT5 or GAPDH, or the human glioma, U251MG cells treated with 5 micromolar of the designated inhibitors for (B) 0-32 h and probing for pS-Akt, Akt, pErk1/2, Erk1/2, pJAK2, JAK2, SOCS3, PTP1B, pSTAT3, STAT3, β-actin or GAPDH; or (C) 3 h in the absence or presence of increasing concentration of Na3VO4 and probing for pSTAT3, STAT3 or GAPDH/.

[3] = test system: pY705STAT3 in U251MG or MDA-MB-231 cells; experiment: Immunoblotting of pY705STAT3 in treated tumor cells

(4S,6R,E)-4,7-dihydroxy-6,10-dimethyl-2-oxo-2,4,5,6,7,8,9,10-octahydro-7,10-epoxycyclodeca[b]furan-3-yl)methyl(E)-2-methylbut-2-enoate [Compound 22]
Expression of GCN1 (immunoblot) ([1]; U251MG): reduced expression
Importin subunit α-2 up ([1]; iTRAQ, 5 micromolar, 1 h): 2 fold
MAP1B down ([1]; iTRAQ, 5 micromolar, 1 h): ~2 fold
Effect on PTP1B levels [2]: little or no effects
Effect on pY705STAT3 / STAT3 activity (immunoblot), in words ([3]; 5 micromolar, 0-24 h, U251MG or MDA-MB-231, Table 1/FIG. 2 numbering): early inhibition at 15-30 min
pY705STAT3 inhibition in combination with sodium orthovanadate ([3]; U251MG, 5 micromolar compound, 10-300 micromolar orthovanadate, 3 h): failed to overcome the inhibitory effect
